Results taken from article PMC3399817 (PLoS ONE, 2012).

Assays:
HIPK1 = target: T1, HIPK1 (Homo sapiens, UniProt Q86Z02); assay: SelectScreen in vitro kinase IC50; format: biochemical
T1 construct: purchased Ambit KINOMEscan (DiscoverX)
Method: (§1) First, we used Ambit's KINOMEscan™ technology to identify those kinases that are inhibited for substrate binding by the compounds, all assayed at 1 μM. Second, we used Invitrogen's SelectScreen® Biochemical Kinase Profiling Service to determine the in vitro IC50s for the compounds against specific kinases.

[1] = target: T2, RPS6KA2(Kin.Dom.1-N-terminal) (Homo sapiens, UniProt Q15349); assay: KINOMEscan; format: binding; conditions: 1 uM
T2 construct: RPS6KA2(Kin.Dom.1-N-terminal); purchased Ambit KINOMEscan (DiscoverX)
Procedure, shortened: (§2)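 Test concentration 1 μM for all compounds. Values reflect interference with substrate binding, not catalytic turnover.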

[2] = tested on: colorectal cancer cells expressing mutant B-RAF (V600E) (HT-29, RKO); assay: Cell viability (Syto60); format: cell-based; conditions: HT-29 and RKO, 72 hours
Method: (§3) All colon cancer cell lines were maintained in DMEM supplemented with penicillin (100 units/mL), streptomycin (100 μg/mL), and 10% fetal bovine serum (FBS). The rectal cancer cell line (Car1) was maintained in DMEM/F12 supplemented with penicillin (100 units/mL)/streptomycin (50 μg/mL), and 5% FBS. […] The target sequences for knockdowns can be found in Table S2. In drug treatment experiments, cells were plated for 24 hours prior to exposure to drug. AZ-628 was obtained from AstraZeneca. CI-1040 was obtained from Pfizer. R406 was synthesized in the Gray laboratory. BAY61-3606 and IKK VII were purchased from EMD Biosciences. BAY derivatives were synthesized for this study.
(§4) Cell cycle analysis was performed via FACS-based propidium iodide quantification, using standard methods. To measure cell viability, cells were grown in 96-well plates in the presence or absence of drug for 72 hours, fixed with 4% paraformaldehyde, and then stained with Syto60 (Invitrogen). Plates were imaged and quantified using the LiCor Odyssey system (LiCor).

HCT-116 (K-RAS^G13D/+) = assay: Cell viability (Syto60); format: cell-based
Method: as §3, §4

[3] = tested on: antigen-induced airway inflammation; parameters: method as in PMID 12766258; conditions: rats ref 14; cited from earlier work
CDC2L5 = CDC2L5 (Homo sapiens, UniProt Q14004); conditions: CDC2L5, 1 uM
Method: as §1

PKNB(M.tuberculosis) = PKNB(M.tuberculosis) (Mycobacterium tuberculosis, UniProt P9WI81); conditions: 1 uM
Sequence of PKNB(M.tuberculosis) (P9WI81 whole entry): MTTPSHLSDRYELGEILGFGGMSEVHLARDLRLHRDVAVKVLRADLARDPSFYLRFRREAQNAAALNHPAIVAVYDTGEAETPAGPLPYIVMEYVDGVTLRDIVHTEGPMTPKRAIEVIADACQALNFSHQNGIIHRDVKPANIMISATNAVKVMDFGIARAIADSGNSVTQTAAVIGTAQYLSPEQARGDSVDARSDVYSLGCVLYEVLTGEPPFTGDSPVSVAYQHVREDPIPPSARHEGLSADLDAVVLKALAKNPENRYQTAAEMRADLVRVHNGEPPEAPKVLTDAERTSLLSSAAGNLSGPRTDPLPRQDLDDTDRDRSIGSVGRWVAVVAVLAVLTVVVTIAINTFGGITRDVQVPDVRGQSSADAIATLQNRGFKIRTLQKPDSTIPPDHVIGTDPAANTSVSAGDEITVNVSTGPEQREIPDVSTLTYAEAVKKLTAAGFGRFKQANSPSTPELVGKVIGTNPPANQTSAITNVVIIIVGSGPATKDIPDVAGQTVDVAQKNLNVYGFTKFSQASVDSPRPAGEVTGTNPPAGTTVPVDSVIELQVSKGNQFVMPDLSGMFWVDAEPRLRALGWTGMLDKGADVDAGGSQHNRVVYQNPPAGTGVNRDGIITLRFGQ
Method: as §1

CLK1 = target: T3, CLK1 (Homo sapiens, UniProt P49759); assay: KINOMEscan; format: binding; conditions: CLK1, 1 uM
T3 construct: purchased Ambit KINOMEscan (DiscoverX)
T3 sequence (P49759 whole entry): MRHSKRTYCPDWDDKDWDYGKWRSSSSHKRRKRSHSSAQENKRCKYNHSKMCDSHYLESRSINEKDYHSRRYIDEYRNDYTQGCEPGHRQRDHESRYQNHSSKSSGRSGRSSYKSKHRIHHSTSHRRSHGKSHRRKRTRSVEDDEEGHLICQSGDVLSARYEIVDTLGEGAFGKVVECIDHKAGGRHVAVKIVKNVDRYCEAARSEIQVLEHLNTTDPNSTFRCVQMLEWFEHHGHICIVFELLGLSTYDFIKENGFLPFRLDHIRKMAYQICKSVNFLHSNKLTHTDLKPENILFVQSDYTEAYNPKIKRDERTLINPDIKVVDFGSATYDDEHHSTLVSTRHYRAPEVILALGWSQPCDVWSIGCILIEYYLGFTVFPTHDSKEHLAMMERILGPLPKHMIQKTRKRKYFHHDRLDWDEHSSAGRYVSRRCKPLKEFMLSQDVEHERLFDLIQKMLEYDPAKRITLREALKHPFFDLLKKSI
Procedure, shortened: as §2

VRK2 = target: T4, VRK2 (Homo sapiens, UniProt Q86Y07); assay: KINOMEscan; format: binding; conditions: VRK2, 1 uM
T4 construct: purchased Ambit KINOMEscan (DiscoverX)
T4 sequence (Q86Y07 whole entry): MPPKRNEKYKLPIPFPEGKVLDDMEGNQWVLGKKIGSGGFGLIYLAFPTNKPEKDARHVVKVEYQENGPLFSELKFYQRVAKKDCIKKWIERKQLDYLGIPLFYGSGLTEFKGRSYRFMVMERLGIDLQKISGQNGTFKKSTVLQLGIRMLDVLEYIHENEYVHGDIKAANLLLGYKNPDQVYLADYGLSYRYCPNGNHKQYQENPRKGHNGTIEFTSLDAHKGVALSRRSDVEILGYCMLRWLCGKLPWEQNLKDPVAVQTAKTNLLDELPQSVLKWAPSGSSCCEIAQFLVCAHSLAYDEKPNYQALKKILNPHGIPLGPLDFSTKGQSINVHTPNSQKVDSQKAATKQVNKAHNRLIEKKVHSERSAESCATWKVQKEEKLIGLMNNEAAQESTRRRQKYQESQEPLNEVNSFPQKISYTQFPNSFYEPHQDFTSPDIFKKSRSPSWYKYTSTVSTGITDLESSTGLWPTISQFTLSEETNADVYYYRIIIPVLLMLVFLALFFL
Procedure, shortened: as §2

[4] = target: T5, ABL1(H396P)-phosphorylated (Homo sapiens, UniProt P00519, H396P); assay: KINOMEscan; format: binding; conditions: 1 uM
T5 construct: purchased Ambit KINOMEscan (DiscoverX)
Procedure, shortened: as §2

[5] = target: T6, EGFR(L747-E749del, A750P) (Homo sapiens, UniProt P00533, A750P/DEL747-749); assay: KINOMEscan; format: binding; conditions: 1 uM
T6 construct: purchased Ambit KINOMEscan (DiscoverX)
T6 sequence (P00533 with tags, fused parts or gaps DEL747-749/A750P limits assumed): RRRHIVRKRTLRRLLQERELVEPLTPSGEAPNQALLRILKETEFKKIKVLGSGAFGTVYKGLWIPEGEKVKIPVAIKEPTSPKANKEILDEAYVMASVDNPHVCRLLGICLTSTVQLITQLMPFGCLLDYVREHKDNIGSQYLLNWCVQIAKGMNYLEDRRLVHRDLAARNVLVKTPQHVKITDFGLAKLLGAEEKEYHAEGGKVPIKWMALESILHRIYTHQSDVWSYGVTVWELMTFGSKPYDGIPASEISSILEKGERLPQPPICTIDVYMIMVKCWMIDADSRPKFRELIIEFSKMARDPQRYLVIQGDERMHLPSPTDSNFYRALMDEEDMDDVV
Procedure, shortened: as §2

EGFR(S752-I759del) = target: T7, EGFR(S752-I759del) (Homo sapiens, UniProt P00533, DEL752-759); assay: KINOMEscan; format: binding; conditions: 1 uM
T7 construct: purchased Ambit KINOMEscan (DiscoverX)
T7 sequence (P00533 with tags, fused parts or gaps DEL752-759 limits assumed): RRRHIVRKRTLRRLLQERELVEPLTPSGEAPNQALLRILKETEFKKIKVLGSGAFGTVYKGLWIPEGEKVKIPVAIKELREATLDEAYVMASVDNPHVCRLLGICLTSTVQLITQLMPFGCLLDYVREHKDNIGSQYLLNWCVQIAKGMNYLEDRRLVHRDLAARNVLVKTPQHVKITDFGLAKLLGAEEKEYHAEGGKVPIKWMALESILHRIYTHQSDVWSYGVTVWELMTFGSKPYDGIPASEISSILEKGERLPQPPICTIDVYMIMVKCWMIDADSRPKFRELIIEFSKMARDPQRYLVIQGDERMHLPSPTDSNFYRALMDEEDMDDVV
Procedure, shortened: as §2

TRPM6 = target: T8, TRPM6 (Homo sapiens, UniProt Q9BX84); assay: KINOMEscan; format: binding; conditions: TRPM6, 1 uM
T8 construct: purchased Ambit KINOMEscan (DiscoverX)
Procedure, shortened: as §2

SRC = target: T9, SRC (Homo sapiens, UniProt P12931); assay: KINOMEscan; format: binding; conditions: 1 uM
T9 construct: purchased Ambit KINOMEscan (DiscoverX)
Procedure, shortened: as §2

CDK4-cyclinD3 = target: T10, CDK4-cyclinD3 (Homo sapiens, UniProt P11802); assay: KINOMEscan; format: binding; conditions: CDK4-cyclinD3, 1 uM
T10 construct: purchased Ambit KINOMEscan (DiscoverX)
Procedure, shortened: as §2

CASK = target: T11, CASK (Homo sapiens, UniProt O14936); assay: KINOMEscan; format: binding; conditions: 1 uM
T11 construct: purchased Ambit KINOMEscan (DiscoverX)
T11 sequence (O14936 whole entry): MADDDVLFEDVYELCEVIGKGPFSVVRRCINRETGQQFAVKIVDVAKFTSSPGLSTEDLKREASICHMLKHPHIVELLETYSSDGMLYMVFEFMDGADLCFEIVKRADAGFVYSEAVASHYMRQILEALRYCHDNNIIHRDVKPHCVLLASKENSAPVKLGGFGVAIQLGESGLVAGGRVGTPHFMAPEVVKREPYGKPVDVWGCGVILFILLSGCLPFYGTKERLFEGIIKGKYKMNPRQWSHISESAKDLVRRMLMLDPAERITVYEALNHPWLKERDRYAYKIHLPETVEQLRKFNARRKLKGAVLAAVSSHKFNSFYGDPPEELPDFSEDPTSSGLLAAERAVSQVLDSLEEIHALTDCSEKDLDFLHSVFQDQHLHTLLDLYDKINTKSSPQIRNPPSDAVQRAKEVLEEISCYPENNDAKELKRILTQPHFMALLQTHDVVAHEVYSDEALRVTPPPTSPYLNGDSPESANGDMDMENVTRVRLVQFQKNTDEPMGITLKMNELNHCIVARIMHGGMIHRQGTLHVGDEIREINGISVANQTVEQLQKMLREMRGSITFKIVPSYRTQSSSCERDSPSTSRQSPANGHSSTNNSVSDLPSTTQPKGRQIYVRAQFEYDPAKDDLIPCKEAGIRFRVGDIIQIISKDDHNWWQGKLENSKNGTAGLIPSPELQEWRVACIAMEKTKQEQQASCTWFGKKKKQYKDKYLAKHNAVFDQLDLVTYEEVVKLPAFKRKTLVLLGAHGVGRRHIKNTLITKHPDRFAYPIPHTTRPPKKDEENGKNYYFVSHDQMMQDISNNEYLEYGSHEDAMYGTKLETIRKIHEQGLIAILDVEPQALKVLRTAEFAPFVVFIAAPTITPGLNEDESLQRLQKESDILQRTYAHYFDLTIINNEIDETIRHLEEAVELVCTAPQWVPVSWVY
Procedure, shortened: as §2

[6] = target: T12, EGFR(L747-S752del, P753S) (Homo sapiens, UniProt P00533, DEL747-752/P753S); assay: KINOMEscan; format: binding; conditions: 1 uM
T12 construct: purchased Ambit KINOMEscan (DiscoverX)
T12 sequence (P00533 with tags, fused parts or gaps DEL747-752/P753S limits assumed): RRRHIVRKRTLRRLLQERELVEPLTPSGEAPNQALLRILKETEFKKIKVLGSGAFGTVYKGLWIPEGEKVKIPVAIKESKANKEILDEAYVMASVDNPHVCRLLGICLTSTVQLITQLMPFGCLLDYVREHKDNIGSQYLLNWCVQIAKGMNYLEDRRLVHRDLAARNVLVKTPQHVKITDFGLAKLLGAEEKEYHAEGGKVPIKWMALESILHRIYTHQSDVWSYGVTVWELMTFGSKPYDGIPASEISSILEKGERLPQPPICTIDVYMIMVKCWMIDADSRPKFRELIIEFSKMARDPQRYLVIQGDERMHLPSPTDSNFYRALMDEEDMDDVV
Procedure, shortened: as §2

PIK3CA(I800L) = target: T13, PIK3CA(I800L) (Homo sapiens, UniProt P42336, I800L); assay: KINOMEscan; format: binding; conditions: 1 uM
T13 construct: purchased Ambit KINOMEscan (DiscoverX)
Procedure, shortened: as §2

T1 sequence (Q86Z02 whole entry): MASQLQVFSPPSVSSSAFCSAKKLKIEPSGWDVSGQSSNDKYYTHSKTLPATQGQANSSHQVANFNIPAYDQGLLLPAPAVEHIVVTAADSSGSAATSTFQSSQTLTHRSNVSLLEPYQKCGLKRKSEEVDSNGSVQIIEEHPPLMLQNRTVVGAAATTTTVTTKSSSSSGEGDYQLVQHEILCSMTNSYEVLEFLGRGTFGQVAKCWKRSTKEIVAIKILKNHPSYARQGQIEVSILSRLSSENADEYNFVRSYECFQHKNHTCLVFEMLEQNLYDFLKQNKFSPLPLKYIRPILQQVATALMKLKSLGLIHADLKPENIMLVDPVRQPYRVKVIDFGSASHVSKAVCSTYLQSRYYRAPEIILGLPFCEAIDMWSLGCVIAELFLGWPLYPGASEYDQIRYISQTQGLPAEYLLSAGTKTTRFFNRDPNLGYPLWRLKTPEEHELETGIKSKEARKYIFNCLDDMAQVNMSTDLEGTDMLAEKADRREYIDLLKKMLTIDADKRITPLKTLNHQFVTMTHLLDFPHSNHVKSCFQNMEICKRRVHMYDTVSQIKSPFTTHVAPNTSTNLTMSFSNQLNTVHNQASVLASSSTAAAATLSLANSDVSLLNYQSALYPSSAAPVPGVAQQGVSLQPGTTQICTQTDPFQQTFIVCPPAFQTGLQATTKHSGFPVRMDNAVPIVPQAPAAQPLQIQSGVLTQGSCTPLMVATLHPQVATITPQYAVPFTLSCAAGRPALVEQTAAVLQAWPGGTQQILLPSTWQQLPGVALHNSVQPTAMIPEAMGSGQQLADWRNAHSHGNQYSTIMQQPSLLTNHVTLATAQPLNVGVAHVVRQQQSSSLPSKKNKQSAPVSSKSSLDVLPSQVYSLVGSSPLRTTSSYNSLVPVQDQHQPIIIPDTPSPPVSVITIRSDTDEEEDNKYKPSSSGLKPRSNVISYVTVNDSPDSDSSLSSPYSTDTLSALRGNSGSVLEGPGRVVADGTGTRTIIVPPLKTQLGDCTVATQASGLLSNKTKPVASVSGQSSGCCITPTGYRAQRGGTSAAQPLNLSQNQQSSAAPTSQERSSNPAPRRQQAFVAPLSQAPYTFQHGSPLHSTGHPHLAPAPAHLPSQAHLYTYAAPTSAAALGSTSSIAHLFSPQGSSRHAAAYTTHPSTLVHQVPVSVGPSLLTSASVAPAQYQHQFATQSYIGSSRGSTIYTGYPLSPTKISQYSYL

Row | SMILES | IC50 (HIPK1) [µM] | % binding compared to no inhibitor control [1] [%] | cell viability, combination of BAY61-3606 and CI-1040 [2] | sensitivity of cells expressing mutant B-RAF (cell viability) ([2]; single agent) | sensitivity of cells expressing mutant K-RAS (cell viability) (HCT-116 (K-RAS^G13D/+); 72 hours, HCT-116 compared to HKe-3, normalized to DMSO) | cooperation with AZ-628 (cell viability) (HCT-116 (K-RAS^G13D/+); HCT-116, 72 hours, 1 µM AZ-628) | antigen-induced airway inflammation [3] | % binding compared to no inhibitor control (CDC2L5) [%] | % binding compared to no inhibitor control (PKNB(M.tuberculosis)) [%] | % binding compared to no inhibitor control (CLK1) [%] | % binding compared to no inhibitor control (VRK2) [%] | % binding compared to no inhibitor control [4] [%] | % binding compared to no inhibitor control [5] [%] | % binding compared to no inhibitor control (EGFR(S752-I759del)) [%] | % binding compared to no inhibitor control (TRPM6) [%] | % binding compared to no inhibitor control (SRC) [%] | % binding compared to no inhibitor control (CDK4-cyclinD3) [%] | % binding compared to no inhibitor control (CASK) [%] | % binding compared to no inhibitor control [6] [%] | % binding compared to no inhibitor control (PIK3CA(I800L)) [%]
1 | COc1ccc(-c2cc3nccn3c(Nc3ncccc3C(N)=O)n2)cc1OC.Cl.Cl [BAY61-3606, 2-[7-(3,4-dimethoxyphenyl)-imidazo [1,2-c]pyrimidin-5-ylamino] nicotinamide dihydrochloride, reference compound] | 4.24 | 92 | cooperated to produce an enhanced response | sensitive | relatively sensitive | did not cooperate | suppresses |  |  |  |  |  |  |  |  |  |  |  |  | 
2 | COc1ccccc1Nc1nc(-c2ccc(OC)c(OC)c2)cc2nccn12 [BAY derivative 6] |  |  |  |  |  |  |  | 88 | 99 | 100 | 88 | 100 | 74 | 72 | 95 | 51 | 95 | 100 | 76 | 100
